Where two headings read alike, the source gives them in different places. Bridge positions count the residues as written; N and C are the ends. Square brackets hold non-standard residues; d marks the D form. Peptide text beside a SMILES is read from it. Trp(1-Me) = Cn1cc(C[C@H](N)C(=O)O)c2ccccc21; NMeI = CC[C@H](C)[C@H](NC)C(=O)O; Orn = NCCC[C@H](N)C(=O)O; Sar = CNCC(=O)O
Molecular target: T1, C3b (Homo sapiens, UniProt P01024)
T1 construct: Biotinylated C3b was captured site-specifically on a streptavidin chip
T1 sequence (P01024 23-667 limits assumed): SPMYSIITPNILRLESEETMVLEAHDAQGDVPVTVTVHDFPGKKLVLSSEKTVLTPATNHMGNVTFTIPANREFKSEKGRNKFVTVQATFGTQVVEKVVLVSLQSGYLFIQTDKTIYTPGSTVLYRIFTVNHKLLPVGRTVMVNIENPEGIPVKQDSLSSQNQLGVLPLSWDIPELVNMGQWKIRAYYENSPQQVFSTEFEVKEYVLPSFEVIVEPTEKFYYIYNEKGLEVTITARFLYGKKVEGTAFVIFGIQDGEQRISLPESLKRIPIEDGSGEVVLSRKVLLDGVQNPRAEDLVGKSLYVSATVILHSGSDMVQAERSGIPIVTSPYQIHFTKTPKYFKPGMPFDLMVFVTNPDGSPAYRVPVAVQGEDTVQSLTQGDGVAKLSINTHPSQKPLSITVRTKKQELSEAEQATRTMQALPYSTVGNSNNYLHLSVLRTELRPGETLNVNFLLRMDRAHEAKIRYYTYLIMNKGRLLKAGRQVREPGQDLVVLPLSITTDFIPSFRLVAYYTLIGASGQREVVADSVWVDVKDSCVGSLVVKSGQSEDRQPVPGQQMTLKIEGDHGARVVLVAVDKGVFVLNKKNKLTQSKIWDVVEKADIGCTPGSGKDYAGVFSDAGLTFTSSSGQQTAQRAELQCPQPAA
T1 sequence (P01024 749-1663 partner limits assumed): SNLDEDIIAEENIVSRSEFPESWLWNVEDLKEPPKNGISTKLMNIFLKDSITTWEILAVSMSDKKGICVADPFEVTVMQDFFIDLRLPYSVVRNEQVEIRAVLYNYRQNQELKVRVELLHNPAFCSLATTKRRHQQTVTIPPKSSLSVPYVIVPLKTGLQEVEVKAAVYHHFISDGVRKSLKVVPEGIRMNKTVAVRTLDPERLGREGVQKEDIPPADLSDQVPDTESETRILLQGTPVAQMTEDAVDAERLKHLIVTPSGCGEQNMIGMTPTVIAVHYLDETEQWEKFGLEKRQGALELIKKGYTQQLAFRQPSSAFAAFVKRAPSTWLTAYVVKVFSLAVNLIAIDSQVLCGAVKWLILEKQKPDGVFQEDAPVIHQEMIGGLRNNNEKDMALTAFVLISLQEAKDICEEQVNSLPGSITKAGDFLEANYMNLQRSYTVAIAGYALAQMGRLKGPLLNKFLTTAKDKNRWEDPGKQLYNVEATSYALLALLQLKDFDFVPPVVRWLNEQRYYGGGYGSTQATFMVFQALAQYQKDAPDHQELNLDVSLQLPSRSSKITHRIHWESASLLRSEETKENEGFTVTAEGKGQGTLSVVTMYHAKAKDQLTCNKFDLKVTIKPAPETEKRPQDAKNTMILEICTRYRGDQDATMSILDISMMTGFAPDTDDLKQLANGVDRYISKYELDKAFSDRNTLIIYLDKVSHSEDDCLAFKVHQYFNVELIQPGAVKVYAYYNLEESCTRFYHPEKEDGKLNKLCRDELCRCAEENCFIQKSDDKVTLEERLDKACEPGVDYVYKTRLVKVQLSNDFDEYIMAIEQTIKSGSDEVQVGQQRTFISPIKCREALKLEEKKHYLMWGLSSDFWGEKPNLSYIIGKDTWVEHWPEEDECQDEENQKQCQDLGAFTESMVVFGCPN
Test: SPR kinetic analysis of binding to immobilized C3b (Biacore, single cycle kinetics)
Details: for Kd: read-out: KD: binding constant from SPR; for koff: read-out: kd: dissociation rate
Experimental: SPR analysis. The interaction of the compstatin analogs with C3b was characterized using a Biacore 3000 instrument (GE Healthcare, Corp., Piscataway, N.J.). The running buffer was PBS, pH 7.4 (10 mM sodium phosphate, 150 mM NaCl) with 0.005% Tween-20. Biotinylated C3b was captured site-specifically on a streptavidin chip at about 3000 and 5000 RU density; two untreated flow cells were used as reference surface. For kinetic analysis, sets of five increasing concentrations of a particular compound were injected over the chip surface one after the other in a single cycle. […] Processed biosensor data were globally fitted to a 1:1 Langmuir binding model (kindly provided by GE Helthcare), and the equilibrium dissociation constant (KD) was calculated from the equation KD=kd/ka. Each assay was performed at least twice.

SMILES: CC[C@H](C)[C@H](NC(=O)[C@@H](NC)C(C)C)C(=O)N[C@H]1CSSC[C@@H](C(=O)N(C)[C@H](C(N)=O)[C@@H](C)CC)NC(=O)[C@H](CCCNC(=N)N)NC(=O)[C@H](Cc2c[nH]cn2)NC(=O)[C@H](C)NC(=O)CN(C)C(=O)[C@H](Cc2c[nH]c3ccccc23)NC(=O)[C@H](CC(=O)O)NC(=O)[C@H](CCC(N)=O)NC(=O)[C@H](Cc2cn(C)c3ccccc23)NC(=O)[C@H](C(C)C)NC1=O [compound 11]
- ka: association rate (Table 1, N-terminal analogs): 1.8 ± 0.3 10^6/Ms
- Kd (Table 1, N-terminal analogs): 1.9 ± 0.1 nM
- koff (Table 1, N-terminal analogs): 0.0035 ± 0.0006 s⁻¹

SMILES: CC[C@H](C)[C@H](NC(=O)[C@H](N)Cc1ccc(O)cc1)C(=O)N[C@H]1CSSC[C@@H](C(=O)N(C)[C@H](C(N)=O)[C@@H](C)CC)NC(=O)[C@H](CCCN)NC(=O)[C@H](Cc2c[nH]cn2)NC(=O)[C@H](C)NC(=O)CN(C)C(=O)[C@H](Cc2c[nH]c3ccccc23)NC(=O)[C@H](CC(N)=O)NC(=O)[C@H](CCC(N)=O)NC(=O)[C@H](Cc2cn(C)c3ccccc23)NC(=O)[C@H](C(C)C)NC1=O [Cp40 (11Orn 6Asn)] (H-[dY]ICV[Trp(1-Me)]QNW[Sar]AH[Orn]C[NMeI]-NH2; disulfide 3-13)
- ka: association rate (Table 2, Cp40-based analogs): 2.0 ± 0.4 10^6/Ms
- Kd (Table 2, Cp40-based analogs): 1.5 ± 0.4 nM
- koff (Table 2, Cp40-based analogs): 0.0028 ± 0.0006 s⁻¹

SMILES: CC[C@H](C)[C@@H](C(N)=O)N(C)C(=O)[C@@H]1CSSC[C@H](NC(=O)CNC(=O)[C@@H](N)Cc2ccc(O)cc2)C(=O)N[C@@H](C(C)C)C(=O)N[C@@H](Cc2cn(C)c3ccccc23)C(=O)N[C@@H](CCC(N)=O)C(=O)N[C@@H](CC(=O)O)C(=O)N[C@@H](Cc2c[nH]c3ccccc23)C(=O)N(C)CC(=O)N[C@@H](C)C(=O)N[C@@H](Cc2c[nH]cn2)C(=O)N[C@@H](CCCNC(=N)N)C(=O)N1 [peptide 20] (H-YGCV[Trp(1-Me)]QDW[Sar]AHRC[NMeI]-NH2; disulfide 3-13)
- ka: association rate (Table 1, N-terminal analogs): 2.1 ± 0.3 10^6/Ms
- Kd (Table 1, N-terminal analogs): 3.5 ± 0.3 nM
- koff (Table 1, N-terminal analogs): 0.0073 ± 0.0014 s⁻¹

SMILES: CC[C@H](C)[C@H](NC(=O)[C@H](N)Cc1ccccc1)C(=O)N[C@H]1CSSC[C@@H](C(=O)N(C)[C@H](C(N)=O)[C@@H](C)CC)NC(=O)[C@H](CCCNC(=N)N)NC(=O)[C@H](Cc2c[nH]cn2)NC(=O)[C@H](C)NC(=O)CN(C)C(=O)[C@H](Cc2c[nH]c3ccccc23)NC(=O)[C@H](CC(=O)O)NC(=O)[C@H](CCC(N)=O)NC(=O)[C@H](Cc2cn(C)c3ccccc23)NC(=O)[C@H](C(C)C)NC1=O [compound 15]
- ka: association rate (Table 1, N-terminal analogs): 2.3 ± 0.3 10^6/Ms
- Kd (Table 1, N-terminal analogs): 1.1 ± 0.1 nM
- koff (Table 1, N-terminal analogs): 0.0026 s⁻¹

SMILES: CC[C@H](C)[C@H](NC(=O)[C@@H](N)Cc1ccccc1)C(=O)N[C@H]1CSSC[C@@H](C(=O)N(C)[C@H](C(N)=O)[C@@H](C)CC)NC(=O)[C@H](CCCNC(=N)N)NC(=O)[C@H](Cc2c[nH]cn2)NC(=O)[C@H](C)NC(=O)CN(C)C(=O)[C@H](Cc2c[nH]c3ccccc23)NC(=O)[C@H](CC(=O)O)NC(=O)[C@H](CCC(N)=O)NC(=O)[C@H](Cc2cn(C)c3ccccc23)NC(=O)[C@H](C(C)C)NC1=O [compound 5] (H-FICV[Trp(1-Me)]QDW[Sar]AHRC[NMeI]-NH2; disulfide 3-13)
- ka: association rate (Table 1, N-terminal analogs): 2.1 ± 0.4 10^6/Ms
- Kd (Table 1, N-terminal analogs): 1.6 ± 0.2 nM
- koff (Table 1, N-terminal analogs): 0.0033 ± 0.0003 s⁻¹

SMILES: CC[C@H](C)[C@H](NC(=O)[C@@H](N)[C@@H](C)O)C(=O)N[C@H]1CSSC[C@@H](C(=O)N(C)[C@H](C(N)=O)[C@@H](C)CC)NC(=O)[C@H](CCCNC(=N)N)NC(=O)[C@H](Cc2c[nH]cn2)NC(=O)[C@H](C)NC(=O)CN(C)C(=O)[C@H](Cc2c[nH]c3ccccc23)NC(=O)[C@H](CC(=O)O)NC(=O)[C@H](CCC(N)=O)NC(=O)[C@H](Cc2cn(C)c3ccccc23)NC(=O)[C@H](C(C)C)NC1=O [compound 8] (H-TICV[Trp(1-Me)]QDW[Sar]AHRC[NMeI]-NH2; disulfide 3-13)
- ka: association rate (Table 1, N-terminal analogs): 1.2 ± 0.1 10^6/Ms
- Kd (Table 1, N-terminal analogs): 2.6 ± 0.3 nM
- koff (Table 1, N-terminal analogs): 0.0031 ± 0.0002 s⁻¹

SMILES: CC[C@H](C)[C@H](NC(=O)[C@H](N)Cc1ccc(O)cc1)C(=O)N[C@H]1CSSC[C@@H](C(=O)N(C)[C@H](C(N)=O)[C@@H](C)CC)NC(=O)[C@H](CCCN)NC(=O)[C@H](Cc2c[nH]cn2)NC(=O)[C@H](C)NC(=O)CN(C)C(=O)[C@H](Cc2c[nH]c3ccccc23)NC(=O)[C@H](CC(=O)O)NC(=O)[C@H](CCC(N)=O)NC(=O)[C@H](Cc2cn(C)c3ccccc23)NC(=O)[C@H](C(C)C)NC1=O [Cp40 (11Orn)] (H-[dY]ICV[Trp(1-Me)]QDW[Sar]AH[Orn]C[NMeI]-NH2; disulfide 3-13)
- ka: association rate (Table 2, Cp40-based analogs): 2.5 ± 0.1 10^6/Ms
- Kd (Table 2, Cp40-based analogs): 0.8 ± 0.1 nM
- koff (Table 2, Cp40-based analogs): 0.002 ± 0.0001 s⁻¹

SMILES: CC[C@H](C)[C@H](NC)C(=O)N[C@H](C(=O)N[C@H]1CSSC[C@@H](C(=O)N(C)[C@H](C(N)=O)[C@@H](C)CC)NC(=O)[C@H](CCCNC(=N)N)NC(=O)[C@H](Cc2c[nH]cn2)NC(=O)[C@H](C)NC(=O)CN(C)C(=O)[C@H](Cc2c[nH]c3ccccc23)NC(=O)[C@H](CC(=O)O)NC(=O)[C@H](CCC(N)=O)NC(=O)[C@H](Cc2cn(C)c3ccccc23)NC(=O)[C@H](C(C)C)NC1=O)[C@@H](C)CC [compound 12]
- ka: association rate (Table 1, N-terminal analogs): 1.6 ± 0.2 10^6/Ms
- Kd (Table 1, N-terminal analogs): 2.4 ± 0.5 nM
- koff (Table 1, N-terminal analogs): 0.0037 ± 0.0003 s⁻¹

SMILES: CC[C@H](C)[C@H](NC(=O)[C@H](Cc1ccccc1)NC)C(=O)N[C@H]1CSSC[C@@H](C(=O)N(C)[C@H](C(N)=O)[C@@H](C)CC)NC(=O)[C@H](CCCNC(=N)N)NC(=O)[C@H](Cc2c[nH]cn2)NC(=O)[C@H](C)NC(=O)CN(C)C(=O)[C@H](Cc2c[nH]c3ccccc23)NC(=O)[C@H](CC(=O)O)NC(=O)[C@H](CCC(N)=O)NC(=O)[C@H](Cc2cn(C)c3ccccc23)NC(=O)[C@H](C(C)C)NC1=O [compound 10]
- ka: association rate (Table 1, N-terminal analogs): 1.6 ± 0.2 10^6/Ms
- Kd (Table 1, N-terminal analogs): 1.8 ± 0.3 nM
- koff (Table 1, N-terminal analogs): 0.0029 ± 0.0003 s⁻¹

SMILES: CC[C@H](C)[C@H](NC(=O)[C@H](N)CC1CCCCC1)C(=O)N[C@H]1CSSC[C@@H](C(=O)N(C)[C@H](C(N)=O)[C@@H](C)CC)NC(=O)[C@H](CCCNC(=N)N)NC(=O)[C@H](Cc2c[nH]cn2)NC(=O)[C@H](C)NC(=O)CN(C)C(=O)[C@H](Cc2c[nH]c3ccccc23)NC(=O)[C@H](CC(=O)O)NC(=O)[C@H](CCC(N)=O)NC(=O)[C@H](Cc2cn(C)c3ccccc23)NC(=O)[C@H](C(C)C)NC1=O [compound 17]
- ka: association rate (Table 1, N-terminal analogs): 1.8 ± 0.5 10^6/Ms
- Kd (Table 1, N-terminal analogs): 1.5 ± 0.2 nM
- koff (Table 1, N-terminal analogs): 0.0027 ± 0.0004 s⁻¹

SMILES: CC[C@H](C)[C@H](NC(=O)[C@H](N)Cc1ccc(O)cc1)C(=O)N[C@H]1CSSC[C@@H](C(=O)N(C)[C@H](C(N)=O)[C@@H](C)CC)NC(=O)[C@H](CCCNC(=N)N)NC(=O)[C@H](Cc2c[nH]cn2)NC(=O)[C@H](C)NC(=O)CN(C)C(=O)[C@H](Cc2c[nH]c3ccccc23)NC(=O)[C@H](CC(N)=O)NC(=O)[C@H](CCC(N)=O)NC(=O)[C@H](Cc2cn(C)c3ccccc23)NC(=O)[C@H](C(C)C)NC1=O [Cp40 (6Asn)] (H-[dY]ICV[Trp(1-Me)]QNW[Sar]AHRC[NMeI]-NH2; disulfide 3-13)
- ka: association rate (Table 2, Cp40-based analogs): 0.9 ± 0.1 10^6/Ms
- Kd (Table 2, Cp40-based analogs): 3 ± 0.4 nM
- koff (Table 2, Cp40-based analogs): 0.0028 ± 0.0001 s⁻¹

SMILES: CC[C@H](C)[C@H](NC(=O)[C@@H](N)Cc1c[nH]c2ccccc12)C(=O)N[C@H]1CSSC[C@@H](C(=O)N(C)[C@H](C(N)=O)[C@@H](C)CC)NC(=O)[C@H](CCCNC(=N)N)NC(=O)[C@H](Cc2c[nH]cn2)NC(=O)[C@H](C)NC(=O)CN(C)C(=O)[C@H](Cc2c[nH]c3ccccc23)NC(=O)[C@H](CC(=O)O)NC(=O)[C@H](CCC(N)=O)NC(=O)[C@H](Cc2cn(C)c3ccccc23)NC(=O)[C@H](C(C)C)NC1=O [compound 7] (H-WICV[Trp(1-Me)]QDW[Sar]AHRC[NMeI]-NH2; disulfide 3-13)
- ka: association rate (Table 1, N-terminal analogs): 1.6 ± 0.1 10^6/Ms
- Kd (Table 1, N-terminal analogs): 2.2 ± 0.2 nM

SMILES: CC[C@H](C)[C@H](NC(=O)[C@@H](N)Cc1ccc(OC)cc1)C(=O)N[C@H]1CSSC[C@@H](C(=O)N(C)[C@H](C(N)=O)[C@@H](C)CC)NC(=O)[C@H](CCCNC(=N)N)NC(=O)[C@H](Cc2c[nH]cn2)NC(=O)[C@H](C)NC(=O)CN(C)C(=O)[C@H](Cc2c[nH]c3ccccc23)NC(=O)[C@H](CC(=O)O)NC(=O)[C@H](CCC(N)=O)NC(=O)[C@H](Cc2cn(C)c3ccccc23)NC(=O)[C@H](C(C)C)NC1=O [compound 9]
- ka: association rate (Table 1, N-terminal analogs): 2.3 ± 0.4 10^6/Ms

SMILES: CC[C@H](C)[C@H](NC(=O)[C@H](N)Cc1c[nH]c2ccccc12)C(=O)N[C@H]1CSSC[C@@H](C(=O)N(C)[C@H](C(N)=O)[C@@H](C)CC)NC(=O)[C@H](CCCNC(=N)N)NC(=O)[C@H](Cc2c[nH]cn2)NC(=O)[C@H](C)NC(=O)CN(C)C(=O)[C@H](Cc2c[nH]c3ccccc23)NC(=O)[C@H](CC(=O)O)NC(=O)[C@H](CCC(N)=O)NC(=O)[C@H](Cc2cn(C)c3ccccc23)NC(=O)[C@H](C(C)C)NC1=O [compound 16]
- ka: association rate (Table 1, N-terminal analogs): 2.0 ± 0.2 10^6/Ms

SMILES: CC[C@H](C)[C@H](NC(=O)[C@@H](C)N)C(=O)N[C@H]1CSSC[C@@H](C(=O)N(C)[C@H](C(N)=O)[C@@H](C)CC)NC(=O)[C@H](CCCNC(=N)N)NC(=O)[C@H](Cc2c[nH]cn2)NC(=O)[C@H](C)NC(=O)CN(C)C(=O)[C@H](Cc2c[nH]c3ccccc23)NC(=O)[C@H](CC(=O)O)NC(=O)[C@H](CCC(N)=O)NC(=O)[C@H](Cc2cn(C)c3ccccc23)NC(=O)[C@H](C(C)C)NC1=O [compound 18]
- ka: association rate (Table 1, N-terminal analogs): 1.4 ± 0.3 10^6/Ms
- Kd (Table 1, N-terminal analogs): 2.5 ± 0.4 nM
- koff (Table 1, N-terminal analogs): 0.0034 ± 0.0004 s⁻¹

SMILES: CC[C@H](C)[C@H](NC(=O)[C@H](C)NC)C(=O)N[C@H]1CSSC[C@@H](C(=O)N(C)[C@H](C(N)=O)[C@@H](C)CC)NC(=O)[C@H](CCCNC(=N)N)NC(=O)[C@H](Cc2c[nH]cn2)NC(=O)[C@H](C)NC(=O)CN(C)C(=O)[C@H](Cc2c[nH]c3ccccc23)NC(=O)[C@H](CC(=O)O)NC(=O)[C@H](CCC(N)=O)NC(=O)[C@H](Cc2cn(C)c3ccccc23)NC(=O)[C@H](C(C)C)NC1=O [compound 13]
- ka: association rate (Table 1, N-terminal analogs): 1.4 ± 0.2 10^6/Ms
- Kd (Table 1, N-terminal analogs): 2.5 ± 0.6 nM
- koff (Table 1, N-terminal analogs): 0.0034 ± 0.0003 s⁻¹
